This note sets out measurements from patent US12540128B2, “Substituted pyridazinones as herbicides” (SYNGENTA CROP PROTECTION AG, priority 2019, dated 2026).

Assay type in all cases: in vivo
What all share (details): 250 g/ha, after 13 days

The subject of assay [1] is Amaranthus retoflexus (AMARE). The experiment in a line: B1 Post-Emergence Efficacy Test 1. The procedure: (§1) Seeds of a variety of test species are sown in standard soil in pots:— Solanum nigrum (SOLNI), Amaranthus retoflexus (AMARE), Setaria faberi (SETFA), Echinochloa crus-galli (ECHCG), Ipomoea hederacea (IPOHE), Lolium perenne (LOLPE). After 8 days cultivation (post-emergence) under controlled conditions in a glasshouse (at 24/16° C., day/night; 14 hours light; 65% humidity), the plants are sprayed with an aqueous spray solution derived from the formulation of the technical active ingredient in acetone/water (50:50) solution containing 0.5% Tween 20 (polyoxyethylene sorbitan monolaurate, CAS RN 9005-64-5). Compounds are applied at 250 g/ha. The test plants are then grown in a glasshouse under controlled conditions in a glasshouse (at 24/16° C., day/night; 14 hours light; 65% humidity) and watered twice daily. After 13 days, the test is evaluated for the percentage damage caused to the plant. The biological activities are assessed on a five point scale (5=80-100%; 4=60-79%; 3=40-59%; 2=20-39%; 1=0-19%). A blank value in the table is indicative that the compound was not tested on that species.

Assay [2] relates to Echinochloa crus-galli (ECHCG). The experiment in a line: B1 Post-Emergence Efficacy Test 1. The procedure: as §1
For assay [3], the system named is Ipomoea hederacea (IPOHE). The experiment in a line: B1 Post-Emergence Efficacy Test 1. How it is done:
as §1

In assay [4] the test system is Lolium perenne (LOLPE). The experiment in a line: B1 Post-Emergence Efficacy Test 1. How it is done:
as §1

The test system of assay [5] is Setaria faberi (SETFA). The experiment in a line: B1 Post-Emergence Efficacy Test 1. How it is done:
as §1

The test system of assay [6] is Solanum nigrum (SOLNI). The experiment in a line: B1 Post-Emergence Efficacy Test 1. How it is done: as §1
In assay [7] the test system is Abutilon theophrasti (ABUTH). The experiment in a line: B2 Post-Emergence Efficacy Test 2.
For assay [8], the system named is Amaranthus retoflexus (AMARE). The experiment in a line: B2 Post-Emergence Efficacy Test 2.
Assay [9] concerns Ipomoea hederacea (IPOHE). The experiment in a line: B2 Post-Emergence Efficacy Test 2.
Assay [10] deals with Setaria faberi (SETFA). The experiment in a line: B2 Post-Emergence Efficacy Test 2.
Assay [11] relates to Zea Mays (ZEAMX). The experiment in a line: B2 Post-Emergence Efficacy Test 2.
Assay [12] deals with Abutilon theophrasti (ABUTH). The experiment in a line: B4 Pre-Emergence Efficacy Test 2.
The subject of assay [13] is Amaranthus retoflexus (AMARE). The experiment in a line: B4 Pre-Emergence Efficacy Test 2.
Assay [14] has as its system Echinochloa crus-galli (ECHCG). The experiment in a line: B4 Pre-Emergence Efficacy Test 2.
In assay [15] the test system is Ipomoea hederacea (IPOHE). The experiment in a line: B4 Pre-Emergence Efficacy Test 2.
Assay [16] concerns Setaria faberi (SETFA). The experiment in a line: B4 Pre-Emergence Efficacy Test 2.
The test system of assay [17] is Zea Mays (ZEAMX). The experiment in a line: B4 Pre-Emergence Efficacy Test 2.
Assay [18] has as its system Amaranthus retoflexus (AMARE). The experiment in a line: B3 Pre-Emergence Efficacy Test 1. The procedure:
(§2) Seeds of a variety of test species were sown in standard soil in pots: Solanum nigrum (SOLNI), Amaranthus retoflexus (AMARE), Setaria faberi (SETFA), Echinochloa crus-galli (ECHCG), Ipomoea hederacea (IPOHE), Lolium perenne (LOLPE). After cultivation for one day (pre-emergence) under controlled conditions in a glasshouse (at 24/16° C., day/night; 14 hours light; 65% humidity), the plants were sprayed with an aqueous spray solution derived from the formulation of the technical active ingredient in acetone/water (50:50) solution containing 0.5% Tween 20 (polyoxyethelyene sorbitan monolaurate, CAS RN 9005-64-5). Compounds are applied at 250 g/ha. The test plants were then grown in a glasshouse under controlled conditions (at 24/16° C., day/night; 14 hours light; 65% humidity) and watered twice daily. After 13 days, the test is evaluated for the percentage damage caused to the plant. The biological activities are assessed on a five point scale (5=80-100%; 4=60-79%; 3=40-59%; 2=20-39%; 1=0-19%). A blank value in the table is indicative that the compound was not tested on that species.

The subject of assay [19] is Echinochloa crus-galli (ECHCG). The experiment in a line: B3 Pre-Emergence Efficacy Test 1. How it is done: as §2
Assay [20] has as its system Ipomoea hederacea (IPOHE). The experiment in a line: B3 Pre-Emergence Efficacy Test 1. The procedure:
as §2

The subject of assay [21] is Lolium perenne (LOLPE). The experiment in a line: B3 Pre-Emergence Efficacy Test 1. The procedure:
as §2

The subject of assay [22] is Setaria faberi (SETFA). The experiment in a line: B3 Pre-Emergence Efficacy Test 1. The procedure: as §2
Assay [23] relates to Solanum nigrum (SOLNI). The experiment in a line: B3 Pre-Emergence Efficacy Test 1. How it is done: as §2
Assay [24] relates to Echinochloa crus-galli (ECHCG). The experiment in a line: B2 Post-Emergence Efficacy Test 2.

On to `Cc1nn(C)c(=O)c(-c2c(F)ccc(Cl)c2CCc2ccc3c(c2)CC(=O)N3)c1O` [Compound 1.357], for which the entries for the “percentage damage caused to the plant, five point scale, AMARE” value (from here on “percentage damage caused … AMARE”) in assay [1], in [8] and in [13] were 5 (5=80-100%), 2 (2=20-39%) and 4 (4=60-79%), respectively. Further, the “percentage damage caused to the plant, five point scale, ECHCG” value (“percentage damage caused … ECHCG” below) in assay [2] and in assay [14] was 4 (4=60-79%) each time. Besides, the results for the “percentage damage caused to the plant, five point scale, IPOHE” value (shortened to “percentage damage caused … IPOHE”) in assay [3], in [9] and in assay [15] were 5 (5=80-100%), 4 (4=60-79%) and 3 (3=40-59%), respectively. Moreover, the “percentage damage caused to the plant, five point scale, LOLPE” value (“percentage damage caused … LOLPE” for short) in assay [4] is reported as 5 (5=80-100%). For the same compound, the “percentage damage caused to the plant, five point scale, SETFA” value (shortened to “percentage damage caused … SETFA”) in assay [5] is on record as 5 (5=80-100%); in assay [10], 4 (4=60-79%); in [16] it was 4 (4=60-79%). Moreover, the “percentage damage caused to the plant, five point scale, SOLNI” value (“percentage damage caused … SOLNI” for short) in assay [6] is given as 5 (5=80-100%). The “percentage damage caused to the plant, five point scale, ABUTH” value in assay [7] and in assay [12] was 4 (4=60-79%) in each case. The “percentage damage caused to the plant, five point scale, ZEAMX” value in [11] was 5 (5=80-100%); in [17], 1 (1=0-19%).

`CCc1nc2ccc(CCc3c(Cl)ccc(F)c3-c3c(O)c(C)nn(C)c3=O)cc2o1` [Compound 1.028]: the “percentage damage caused … AMARE” value in assay [1] and in assay [18] was 5 (5=80-100%) throughout. Also, the “percentage damage caused … ECHCG” value in assay [2] is 5 (5=80-100%); in assay [19], 1 (1=0-19%). Further, the “percentage damage caused … IPOHE” value in assay [3] and in assay [20] was 5 (5=80-100%) each time. Further, the “percentage damage caused … LOLPE” value in [4] and in assay [21] was 5 (5=80-100%) throughout. Also, the “percentage damage caused … SETFA” value in [5] and in assay [22] was 5 (5=80-100%) throughout. Besides, the “percentage damage caused … SOLNI” value in assay [6] and in [23] was 5 (5=80-100%) throughout.

Take `Cc1ccc2cc(/C=C/c3c(Cl)ccc(F)c3-c3c(OC(=O)C(C)C)c(C)nn(C)c3=O)ccc2n1` [Compound 4.034, [5-[3-chloro-6-fluoro-2-[(E)-2-(2-methyl-6-quinolyl)vinyl]phenyl]-1,3-dimethyl-6-oxo-pyridazin-4-yl] 2-methylpropanoate]: the results for the “percentage damage caused … AMARE” value in assay [1] and in assay [18] were 1 (1=0-19%) and 0, respectively. Besides, the “percentage damage caused … IPOHE” value in assay [3] is reported as 3 (3=40-59%); in [20], 0. The “percentage damage caused … LOLPE” value in [4] is reported as 1 (1=0-19%); in [21] it was 0. Also, the “percentage damage caused … SETFA” value in assay [5] was 2 (2=20-39%); in assay [22], 0. The “percentage damage caused … SOLNI” value in [6] is on record as 5 (5=80-100%); in [23] it was 1 (1=0-19%). For the same compound, the “percentage damage caused … ECHCG” value in [19] turned out to be 0.

Regarding `Cc1ccc2cc(/C=C/c3c(Cl)ccc(F)c3-c3c(O)c(C)nn(C)c3=O)ccc2n1` [Compound 2.034, 4-[3-chloro-6-fluoro-2-[(E)-2-(2-methyl-6-quinolyl)vinyl]phenyl]-5-hydroxy-2,6-dimethyl-pyridazin-3-one], the “percentage damage caused … AMARE” value in [1] and in [18] was 1 (1=0-19%) throughout. Besides, the “percentage damage caused … IPOHE” value is 3 (3=40-59%) in assay [3] and 0 in [20]. The “percentage damage caused … LOLPE” value in [4] is reported as 2 (2=20-39%); in assay [21], 1 (1=0-19%). The “percentage damage caused … SETFA” value in assay [5] is given as 2 (2=20-39%); in assay [22] it was 1 (1=0-19%). Moreover, the “percentage damage caused … SOLNI” value in assay [6] is listed as 5 (5=80-100%); in assay [23], 2 (2=20-39%). Further, in [19], the “percentage damage caused … ECHCG” value is given as 1 (1=0-19%).

As for `Cc1nc2ccc(CCc3c(Cl)ccc(F)c3-c3c(O)c(C)nn(C)c3=O)cc2o1` [Compound 1.341], the “percentage damage caused to the plant, five point scale, ABUTH” value in [7] and in assay [12] was 5 (5=80-100%) in each case. Besides, the “percentage damage caused … AMARE” value in assay [8] and in [13] was 5 (5=80-100%) each time. Also, the “percentage damage caused … ECHCG” value in assay [24] and in assay [14] was 5 (5=80-100%) in each case. In addition, the “percentage damage caused … IPOHE” value in assay [9] and in [15] was 5 (5=80-100%) throughout. The “percentage damage caused … SETFA” value is 4 (4=60-79%) in assay [10] and 5 (5=80-100%) in assay [16]. Moreover, the “percentage damage caused to the plant, five point scale, ZEAMX” value in assay [11] and in assay [17] was 4 (4=60-79%) in each case.

`Cc1nn(C)c(=O)c(-c2c(F)ccc(Cl)c2CCc2cc(C(F)(F)F)nc3ccccc23)c1O` [Compound 1.027]: the entries for the “percentage damage caused … AMARE” value in assay [1] and in assay [18] were 2 (2=20-39%) and 1 (1=0-19%), respectively. Besides, the “percentage damage caused … ECHCG” value in [2] is 4 (4=60-79%); in assay [19], 3 (3=40-59%). Also, the “percentage damage caused … IPOHE” value was 5 (5=80-100%) in assay [3] and 3 (3=40-59%) in assay [20]. The “percentage damage caused … LOLPE” value in assay [4] is given as 4 (4=60-79%); in assay [21] it was 3 (3=40-59%). Also, the “percentage damage caused … SETFA” value in assay [5] was 4 (4=60-79%); in assay [22], 1 (1=0-19%). For the same compound, the “percentage damage caused … SOLNI” value in assay [23] is on record as 4 (4=60-79%).
